ChEMBL document CHEMBL1142442, “Synthesis of chimeric tetrapeptide-linked cholic acid derivatives: impending synergistic agents” (Bioorg Med Chem Lett, 2008)
In brackets after ≈: the same amount, converted by molar mass. Where a SMILES comes first, the peptide text is derived from it. The star is where a group is joined. Boc = CC(C)(C)OC(=O)*; OBn = c1ccc(CO*)cc1

Tests used:
Staphylococcus aureus = assay: Antibacterial activity at Staphylococcus aureus; type: functional
Escherichia coli [1] = assay: Antibacterial activity at Escherichia coli; type: functional
Escherichia coli [2] = assay: Antibacterial activity at Escherichia coli assessed as concentration required to lower the MIC of erythromycin from 64 to 1 ug/mL after 24 hrs; type: functional
Candida albicans [3] = assay: Antifungal activity at Candida albicans assessed as concentration required to lower the MIC of fluconazole from 32 to 1 ug/mL after 48 hrs; type: functional
Candida albicans [4] = assay: Antifungal activity at Candida albicans; type: functional
Yarrowia lipolytica = assay: Antifungal activity at Yarrowia lipolytica; type: functional
HEK293 [5] = assay: Antiproliferative activity against HEK293 cells by MTT assay; type: cell-based; conditions: Homo sapiens
MCF7 [6] = assay: Antiproliferative activity against human MCF7 cells at upto 80 uM by MTT assay; type: functional, cell-based
Fusarium oxysporum = assay: Antifungal activity at Fusarium oxysporum; type: functional
HEK293 [7] = assay: Antiproliferative activity against HEK293 cells at upto 80 uM by MTT assay; type: cell-based; conditions: human
Benjaminiella poitrasii = assay: Antifungal activity at Benjaminiella poitrasii; type: functional
Cryptococcus neoformans = assay: Antifungal activity at Cryptococcus neoformans; type: functional
MCF7 [8] = assay: Antiproliferative activity against human MCF7 cells by MTT assay; type: functional, cell-based

SMILES | MIC (Staphylococcus aureus) [µg/mL] | MIC (Escherichia coli [1]) [µg/mL] | MIC (Escherichia coli [2]) [µg/mL] | MIC (Candida albicans [3]) [µg/mL] | MIC (Candida albicans [4]) [µg/mL] | MIC (Yarrowia lipolytica) [µg/mL] | IC50 (HEK293 [5]) [µM] | Activity (MCF7 [6]) | MIC (Fusarium oxysporum) [µg/mL] | Activity (HEK293 [7]) | MIC (Benjaminiella poitrasii) [µg/mL] | MIC (Cryptococcus neoformans) [µg/mL] | IC50 (MCF7 [8]) [µM]
CN(C)[C@@H]1C(O)=C(C(N)=O)C(=O)[C@@]2(O)C(O)=C3C(=O)c4c(O)cccc4[C@@](C)(O)[C@H]3C[C@@H]12 [TETRACYCLINE] | 16 (≈ 36 µM) | 8 (≈ 18 µM) |  |  |  |  |  |  |  |  |  |  | 
CC(C)(C)OC(=O)NCC(=O)NCC(=O)NCC(=O)NCC(=O)O (Boc-GGGG-OH) |  | 64 (≈ 185 µM) | 128 | 64 | > 128 |  |  |  |  |  |  |  | 
C[C@H](CCCO)[C@H]1CC[C@H]2[C@@H]3[C@H](O)C[C@@H]4C[C@@H](NC(=O)CCNC(=O)CCNC(=O)CCNC(=O)CCNC(=O)OC(C)(C)C)CC[C@]4(C)[C@H]3C[C@H](O)[C@]12C | > 128 | > 128 | 20 | 12 | 128 (≈ 165 µM) | > 128 | 800 | Non-toxic | 64 (≈ 82.3 µM) | Non-toxic | > 128 | > 128 | > 1000
C[C@H](CCC(=O)O)[C@H]1CC[C@H]2[C@@H]3[C@H](O)C[C@@H]4C[C@H](O)CC[C@]4(C)[C@H]3C[C@H](O)[C@]12C [CHOLIC ACID] | > 128 | > 128 | 64 | 64 | > 128 | > 128 | > 1000 |  | > 128 |  | 128 (≈ 313 µM) | > 128 | 50
CC[C@H]1OC(=O)[C@H](C)[C@@H](O[C@H]2C[C@@](C)(OC)[C@@H](O)[C@H](C)O2)[C@H](C)[C@@H](O[C@@H]2O[C@H](C)C[C@H](N(C)C)[C@H]2O)[C@](C)(O)C[C@@H](C)C(=O)[C@H](C)[C@@H](O)[C@]1(C)O [ERYTHROMYCIN] | 32 (≈ 43.6 µM) | 64 (≈ 87.2 µM) |  |  |  |  |  |  |  |  |  |  | 
C[C@@H]1[C@H](O)[C@@H](C)/C=C/C=C/C=C/C=C/C=C/C=C/C=C/[C@H](O[C@@H]2O[C@H](C)[C@@H](O)[C@H](N)[C@@H]2O)C[C@@H]2O[C@](O)(C[C@@H](O)C[C@@H](O)[C@H](O)CC[C@@H](O)C[C@@H](O)CC(=O)O[C@H]1C)C[C@H](O)[C@H]2C(=O)O [AMPHOTERICIN B] |  |  |  |  | 2 (≈ 2.16 µM) | 16 (≈ 17.3 µM) |  |  | 16 (≈ 17.3 µM) |  | 16 (≈ 17.3 µM) | 16 (≈ 17.3 µM) | 
OC(Cn1cncn1)(Cn1cncn1)c1ccc(F)cc1F [FLUCONAZOLE] |  |  |  |  | 32 (≈ 104 µM) | 64 (≈ 209 µM) |  |  | 8 (≈ 26.1 µM) |  | 32 (≈ 104 µM) | 32 (≈ 104 µM) | 
CC(=O)OCCC[C@@H](C)[C@H]1CC[C@H]2[C@@H]3[C@H](OC(C)=O)C[C@@H]4C[C@@H](NC(=O)CCNC(=O)CCNC(=O)CCNC(=O)CCNC(=O)OC(C)(C)C)CC[C@]4(C)[C@H]3C[C@H](O)[C@]12C | 32 (≈ 37.1 µM) | > 128 | 10 | 8 | 32 (≈ 37.1 µM) | 96 (≈ 111 µM) | 80 | Non-toxic | > 128 | Non-toxic | 64 (≈ 74.2 µM) | > 128 | 150
COC(=O)CC[C@@H](C)[C@H]1CC[C@H]2[C@@H]3[C@H](O)C[C@@H]4C[C@@H](NC(=O)CNC(=O)CNC(=O)CNC(=O)CN)CC[C@]4(C)[C@H]3C[C@H](O)[C@]12C | 96 (≈ 148 µM) | > 128 | 12 | 6 | 32 (≈ 49.2 µM) | > 128 | 80 | Non-toxic | 128 (≈ 197 µM) | Non-toxic | 64 (≈ 98.5 µM) | > 128 | 500
NCCC(=O)NCCC(=O)NCCC(=O)NCCC(=O)O |  | 128 (≈ 423 µM) | > 128 | 128 | > 128 |  |  |  |  |  |  |  | 
NCC(=O)NCC(=O)NCC(=O)NCC(=O)O (H-GGGG-OH) |  | > 128 | 64 | > 128 | 128 (≈ 520 µM) |  |  |  |  |  |  |  | 
CC(C)(C)OC(=O)NCC(=O)NCC(=O)NCC(=O)NCC(=O)OCc1ccccc1 (Boc-GGGG-OBn) |  | 128 (≈ 293 µM) | 128 | 128 | > 128 |  |  |  |  |  |  |  | 
CC(CCC(=O)O)C1CCC2C3C(O)CC4CC(NC(=O)CCNC(=O)CCNC(=O)CCNC(=O)CCNC(=O)OC(C)(C)C)CCC4(C)C3CC(O)C12C (configuration not stated) | > 128 | > 128 | 16 | 12 | 32 (≈ 40.4 µM) | > 128 | > 1000 | Non-toxic | 64 (≈ 80.8 µM) | Non-toxic | 48 (≈ 60.6 µM) | > 128 | > 1000
CC(=O)OCCC[C@@H](C)[C@H]1CC[C@H]2[C@@H]3[C@H](OC(C)=O)C[C@@H]4C[C@@H](NC(=O)CNC(=O)CNC(=O)CNC(=O)CNC(=O)OC(C)(C)C)CC[C@]4(C)[C@H]3C[C@H](O)[C@]12C | > 128 | 64 (≈ 79.4 µM) | 24 | 12 | 64 (≈ 79.4 µM) | > 128 | 200 | Non-toxic | 64 (≈ 79.4 µM) | Non-toxic | 32 (≈ 39.7 µM) | > 128 | 500
CC(C)(C)OC(=O)NCCC(=O)NCCC(=O)NCCC(=O)NCCC(=O)OCc1ccccc1 |  | 128 (≈ 260 µM) | 64 | 128 | > 128 |  |  |  |  |  |  |  | 
C[C@H](CCCO)[C@H]1CC[C@H]2[C@@H]3[C@H](O)C[C@@H]4C[C@@H](NC(=O)CCNC(=O)CCNC(=O)CCNC(=O)CCN)CC[C@]4(C)[C@H]3C[C@H](O)[C@]12C | > 128 | 32 (≈ 47.2 µM) | 8 | 6 | 64 (≈ 94.4 µM) | > 128 | 800 | Non-toxic | > 128 | Non-toxic | 64 (≈ 94.4 µM) | > 128 | > 1000
COC(=O)CC[C@@H](C)[C@H]1CC[C@H]2[C@@H]3[C@H](O)C[C@@H]4C[C@@H](NC(=O)CNC(=O)CNC(=O)CNC(=O)CNC(=O)OC(C)(C)C)CC[C@]4(C)[C@H]3C[C@H](O)[C@]12C | 32 (≈ 42.7 µM) | 96 (≈ 128 µM) | 24 | 8 | 16 (≈ 21.3 µM) | > 128 | 600 | Non-toxic | 64 (≈ 85.3 µM) | Non-toxic | 64 (≈ 85.3 µM) | > 128 | 300
C[C@H](CCC(=O)O)[C@H]1CC[C@H]2[C@@H]3[C@H](O)C[C@@H]4C[C@@H](NC(=O)CCNC(=O)CCNC(=O)CCNC(=O)CCN)CC[C@]4(C)[C@H]3C[C@H](O)[C@]12C | > 128 | 32 (≈ 46.2 µM) | 4 | 1 | 32 (≈ 46.2 µM) | > 128 | > 1000 | Non-toxic | 64 (≈ 92.5 µM) | Non-toxic | 24 (≈ 34.7 µM) | > 128 | 200
COC(=O)CC[C@@H](C)[C@H]1CC[C@H]2[C@@H]3[C@H](O)C[C@@H]4C[C@@H](NC(=O)CCNC(=O)CCNC(=O)CCNC(=O)CCN)CC[C@]4(C)[C@H]3C[C@H](O)[C@]12C | 64 (≈ 90.7 µM) | 96 (≈ 136 µM) | 8 | 3 | 128 (≈ 181 µM) | > 128 | 700 | Non-toxic | 32 (≈ 45.3 µM) | Non-toxic | 24 (≈ 34 µM) | > 128 | 600
CC(C)(C)OC(=O)NCCC(=O)NCCC(=O)NCCC(=O)NCCC(=O)O |  | 64 (≈ 159 µM) | > 128 | 64 | > 128 |  |  |  |  |  |  |  | 
COC(=O)CC[C@@H](C)[C@H]1CC[C@H]2[C@@H]3[C@H](O)C[C@@H]4C[C@@H](NC(=O)CCNC(=O)CCNC(=O)CCNC(=O)CCNC(=O)OC(C)(C)C)CC[C@]4(C)[C@H]3C[C@H](O)[C@]12C | > 128 | > 128 | 16 | 6 | 32 (≈ 39.7 µM) | 96 (≈ 119 µM) | > 1000 | Non-toxic | 64 (≈ 79.4 µM) | Non-toxic | 16 (≈ 19.8 µM) | > 128 | 100
CC(=O)OCCC[C@@H](C)[C@H]1CC[C@H]2[C@@H]3[C@H](OC(C)=O)C[C@@H]4C[C@@H](NC(=O)CNC(=O)CNC(=O)CNC(=O)CN)CC[C@]4(C)[C@H]3C[C@H](O)[C@]12C | 64 (≈ 90.7 µM) | > 128 | 8 | 6 | 64 (≈ 90.7 µM) | > 128 | 800 | Non-toxic | 32 (≈ 45.3 µM) | Non-toxic | 16 (≈ 22.7 µM) | > 128 | 150
